Source: US9216991B2 (Ares Trading S.A., priority 2012, dated 2015)

Each compound was assayed against T1, IRAK4 (Homo sapiens, UniProt Q9NWZ3) (assay: IRAK4 Enzymatic Assay). Conditions: His-TEV-IRAK4 20 ng/well, ATP 2 μM, STK1-biotin peptide 300 nM, 3 hours at 30° C., FlashPlate radioactivity.
T1 construct: His (N); TEV cleavage site (N)
T1 sequence (Q9NWZ3 1-460): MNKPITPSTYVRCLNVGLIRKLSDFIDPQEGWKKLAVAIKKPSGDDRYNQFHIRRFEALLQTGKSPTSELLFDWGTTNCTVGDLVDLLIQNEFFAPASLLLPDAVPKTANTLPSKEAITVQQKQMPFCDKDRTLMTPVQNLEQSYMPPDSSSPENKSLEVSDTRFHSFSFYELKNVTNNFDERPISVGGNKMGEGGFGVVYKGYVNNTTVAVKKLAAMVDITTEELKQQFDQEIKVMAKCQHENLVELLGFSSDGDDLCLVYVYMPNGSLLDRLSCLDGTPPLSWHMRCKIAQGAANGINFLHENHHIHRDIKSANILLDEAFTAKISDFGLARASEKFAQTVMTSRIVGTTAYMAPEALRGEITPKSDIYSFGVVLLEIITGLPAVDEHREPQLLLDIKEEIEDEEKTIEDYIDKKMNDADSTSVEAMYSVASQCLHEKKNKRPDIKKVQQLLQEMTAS
Type: biochemical
Summary of the method: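 Recombinant His-TEV-tagged IRAK4 (20 ng/well) phosphorylates biotinylated STK1 peptide (300 nM) with 2 μM ATP plus [^33P]ATP, 3 h at 30 °C in pH 7.0 HEPES buffer with MgCl2 and MnCl2; compounds tested 20 μM to 1 nM. Reaction stopped with EDTA; incorporated radioactivity counted on streptavidin FlashPlates.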

Row | IC50 | SMILES
1 | < 100 nM | Cn1cc(-c2cccc(-c3ncc(-c4cnn([C@H]5CC[C@H](C(=O)NCCCO)CC5)c4)cn3)c2)cn1 [Example 190, Trans-4-(4-{2-[3-(1-Methyl-1H-pyrazol-4-yl)-phenyl]-pyrimidin-5-yl}-pyrazol-1-yl)-cyclohexanecarboxylic acid (3-hydroxy-propyl)-amide]
2 | < 100 nM | CO[C@H]1CCN(C(=O)[C@H]2CC[C@H](n3cc(-c4cnc(-c5cccc(-c6cnn(C)c6)c5)nc4)cn3)CC2)C1 [Example 191, Trans-((S)-3-Methoxy-pyrrolidin-1-yl)-[4-(4-{2-[3-(1-methyl-1H-pyrazol-4-yl)-phenyl]-pyrimidin-5-yl}-pyrazol-1-yl)-cyclohexyl]-methanone]
3 | < 100 nM | Cn1cc(-c2cccc(-c3ncc(-c4cnn([C@H]5CC[C@H](C(=O)NC(C)(C)C)CC5)c4)cn3)c2)cn1 [Example 192, Trans-4-(4-{2-[3-(1-Methyl-1H-pyrazol-4-yl)-phenyl]-pyrimidin-5-yl}-pyrazol-1-yl)-cyclohexanecarboxylic acid tert-butylamide]
4 | 100 to 1000 nM | CC(=O)N1[C@@H]2COC[C@H]1C[C@H](n1cc(-c3cnc(-c4cccc(-c5cnn(C)c5)c4)nc3)cn1)C2 [Example 193, exo-1-[7-(4-{2-[3-(1-Methyl-1H-pyrazol-4-yl)-phenyl]-pyrimidin-5-yl}-pyrazol-1-yl)-3-oxa-9-aza-bicyclo[3.3.1]non-9-yl]-ethanone]
5 | 1000 to 5000 nM | CN(C)C(=O)[C@H]1C[C@H]2COC[C@@H](C1)[C@@H]2n1cc(-c2cnc(-c3cccc(-c4cnn(C)c4)c3)nc2)cn1 [Example 194, cis-cis-9-(4-{2-[3-(1-Methyl-1H-pyrazol-4-yl)-phenyl]-pyrimidin-5-yl}-pyrazol-1-yl)-3-oxa-bicyclo[3.3.1]nonane-7-carboxylic acid dimethylamide]
6 | 100 to 1000 nM | Cn1cc(-c2cccc(-c3ncc(-c4cnn(C5CCCC(=O)C5)c4)cn3)c2)cn1 (stereo not shown) [Example 195, 3-(4-{2-[3-(1-Methyl-1H-pyrazol-4-yl)-phenyl]-pyrimidin-5-yl}-pyrazol-1-yl)-cyclohexanone]
7 | 100 to 1000 nM | Cn1cc(-c2cccc(-c3ncc(-c4cnn([C@H]5CC[C@@H](O)CC5)c4)cn3)c2)cn1 [Example 196, Cis-4-(4-{2-[3-(1-Methyl-1H-pyrazol-4-yl)-phenyl]-pyrimidin-5-yl}-pyrazol-1-yl)-cyclohexanol]
8 | < 100 nM | CCNC(=O)[C@H]1CC[C@H](n2cc(-c3cnc(-c4cccc(-c5cnn(C)c5)c4)nc3)cn2)CC1 [Example 197, Trans-4-(4-{2-[3-(1-Methyl-1H-pyrazol-4-yl)-phenyl]-pyrimidin-5-yl}-pyrazol-1-yl)-cyclohexanecarboxylic acid ethylamide]
9 | < 100 nM | C[C@@H](CO)NC(=O)[C@H]1CC[C@H](n2cc(-c3cnc(-c4cccc(-c5cnn(C)c5)c4)nc3)cn2)CC1 [Example 198, Trans-4-(4-{2-[3-(1-Methyl-1H-pyrazol-4-yl)-phenyl]-pyrimidin-5-yl}-pyrazol-1-yl)-cyclohexanecarboxylic acid ((S)-2-hydroxy-1-methyl-ethyl)-amide]
10 | < 100 nM | C[C@H](CO)NC(=O)[C@H]1CC[C@H](n2cc(-c3cnc(-c4cccc(-c5cnn(C)c5)c4)nc3)cn2)CC1 [Example 199, Trans-4-(4-{2-[3-(1-Methyl-1H-pyrazol-4-yl)-phenyl]-pyrimidin-5-yl}-pyrazol-1-yl)-cyclohexanecarboxylic acid ((R)-2-hydroxy-1-methyl-ethyl)-amide]
11 | < 100 nM | CC(C)N(C)C(=O)[C@H]1CC[C@H](n2cc(-c3cnc(-c4cccc(-c5cnn(C)c5)c4)nc3)cn2)CC1 [Example 200, Trans-4-(4-{2-[3-(1-Methyl-1H-pyrazol-4-yl)-phenyl]-pyrimidin-5-yl}-pyrazol-1-yl)-cyclohexanecarboxylic acid isopropyl-methyl-amide]
12 | < 100 nM | CCC(O)CNC(=O)[C@H]1CC[C@H](n2cc(-c3cnc(-c4cccc(-c5cnn(C)c5)c4)nc3)cn2)CC1 (stereo partly drawn) [Example 203, trans-4-(4-{2-[3-(1-Methyl-1H-pyrazol-4-yl)-phenyl]-pyrimidin-5-yl}-pyrazol-1-yl)-cyclohexanecarboxylic acid (2-hydroxy-butyl)-amide]
13 | < 100 nM | CCN(C)C(=O)[C@H]1CC[C@H](n2cc(-c3cnc(-c4cccc(-c5cnn(C)c5)c4)nc3)cn2)CC1 [Example 204, 4-(4-{2-[3-(1-Methyl-1H-pyrazol-4-yl)-phenyl]-pyrimidin-5-yl}-pyrazol-1-yl)-cyclohexanecarboxylic acid ethyl-methyl-amide]
14 | < 100 nM | Cn1cc(-c2cccc(-c3ncc(-c4cnn([C@H]5CC[C@H](C(=O)N6CC[C@H](O)C6)CC5)c4)cn3)c2)cn1 [Example 205, trans-((S)-3-Hydroxy-pyrrolidin-1-yl)-[4-(4-{2-[3-(1-methyl-1H-pyrazol-4-yl)-phenyl]-pyrimidin-5-yl}-pyrazol-1-yl)-cyclohexyl]-methanone]
15 | < 100 nM | Cn1cc(-c2cccc(-c3ncc(-c4cnn([C@H]5CC[C@H](C(N)=O)CC5)c4)cn3)c2)cn1 [Example 206, Trans-4-(4-{2-[3-(1-Methyl-1H-pyrazol-4-yl)-phenyl]-pyrimidin-5-yl}-pyrazol-1-yl)-cyclohexanecarboxylic acid amide]
16 | < 100 nM | Cn1cc(-c2cccc(-c3ncc(-c4cnn([C@H]5CC[C@H](N6CCOCC6)CC5)c4)cn3)c2)cn1 [Example 208, Trans-4-[4-(4-{2-[3-(1-Methyl-1H-pyrazol-4-yl)-phenyl]-pyrimidin-5-yl}-pyrazol-1-yl)-cyclohexyl]-morpholine]
17 | 1000 to 5000 nM | Cn1cc(-c2cccc(-c3ncc(-c4cnn([C@H]5CC[C@@H](N6CCOCC6)CC5)c4)cn3)c2)cn1 [Example 209, cis-4-[4-(4-{2-[3-(1-Methyl-1H-pyrazol-4-yl)-phenyl]-pyrimidin-5-yl}-pyrazol-1-yl)-cyclohexyl]-morpholine]
18 | 1000 to 5000 nM | Cn1cc(-c2cccc(-c3ncc(-c4cnn(CCNS(C)(=O)=O)c4)cn3)c2)cn1 [Example 210, N-[2-(4-{2-[3-(1-Methyl-1H-pyrazol-4-yl)-phenyl]-pyrimidin-5-yl}-pyrazol-1-yl)-ethyl]-methanesulfonamide]
19 | 100 to 1000 nM | Cn1cc(-c2cccc(-c3ncc(-c4cnn(C5CCCC5O)c4)cn3)c2)cn1 (stereo not shown) [Example 211, 2-(4-{2-[3-(1-Methyl-1H-pyrazol-4-yl)-phenyl]-pyrimidin-5-yl}-pyrazol-1-yl)-cyclopentanol]
20 | 100 to 1000 nM | Cn1cc(-c2cccc(-c3ncc(-c4cnn(CC(O)CO)c4)cn3)c2)cn1 (stereo not shown) [Example 212, 3-(4-{2-[3-(1-Methyl-1H-pyrazol-4-yl)-phenyl]-pyrimidin-5-yl}-pyrazol-1-yl)-propane-1,2-diol]
21 | < 100 nM | Cn1cc(-c2cccc(-c3ncc(-c4cnn([C@H]5CC[C@H](C(=O)NC(C)(C)CO)CC5)c4)cn3)c2)cn1 [Example 213, trans-4-(4-{2-[3-(1-Methyl-1H-pyrazol-4-yl)-phenyl]-pyrimidin-5-yl}-pyrazol-1-yl)-cyclohexanecarboxylic acid (2-hydroxy-1,1-dimethyl-ethyl)-amide]
22 | 1000 to 5000 nM | CC(C)OCC(CO)n1cc(-c2cnc(-c3cccc(-c4cnn(C)c4)c3)nc2)cn1 (stereo not shown) [Example 214, 3-Isopropoxy-2-(4-{2-[3-(1-methyl-1H-pyrazol-4-yl)-phenyl]-pyrimidin-5-yl}-pyrazol-1-yl)-propan-1-ol]
